≈ marks a conversion by molar mass, not a printed value. Where two headings read alike, the source gives them in different places.

The conditions of data set [1]: solids shaken in water or pH 1 / 4.5 / 6.8 buffer at 37° C. On the procedure: (§1) The resulting samples were shaken at 37° C. for 1 hour. […] All samples were then shaken at 37° C. for 23 hours. […] Any solids which were isolated by filtration were assessed by XRPD to determine whether the form of the material had changed.
The conditions of data set [2]: up to 1 mL. On the procedure:
Between each addition, the mixture was checked for dissolution and, if no dissolution was apparent, the mixture was heated to about 50° C. and checked again. After 300 μL of solvent had been added, 100 μL aliquots were added sequentially. This procedure was continued until dissolution was observed or until 1 mL of solvent had been added. If no dissolution occurred, the solids were isolated by filtration and an XRPD pattern was collected. If dissolution occurred, the solvent was evaporated and an XRPD pattern was collected on any solid which remained.

Another data set in a line: physchem. Conditions: for solubility at 24 h: 37 °C, thermodynamic from solid. On the procedure: For each sample, 30 mg of the freebase was weighed into vials (in triplicate) and 1 mL of water or buffer was added. The following buffers (50 mM in each case) used were: • pH 1 25 mL KCl solution (1.49 g dissolved in 100 mL water) and 42.5 mL HCl solution (1.66 mL made up to 100 mL with water) were added together and made up to 100 mL with water; • pH 4.5 anhydrous sodium acetate (1.07 g) was dissolved in water (about 150 mL) before adding 5.9 mL acetic acid solution (11.6 mL glacial acetic acid made up to 100 mL with water). The resulting solution was made up to 500 mL with water; and • pH 6.8 25 mL of KH2PO4 solution (2.72 g dissolved in about 80 mL water and made up to 100 mL with water) and 11.2 mL of NaOH solution (800 mg of sodium hydroxide was dissolved and diluted to 100 mL with water) were added together and made up to 100 mL with water.
as §1

The conditions of data set [3]: for Hygroscopicity: GVS, double cycle. On the procedure: Typically, approximately 10-20 mg of sample was placed into a mesh vapour sorption balance pan and loaded into an IGASorp Moisture Sorption Analyser balance by Hiden Analytical. The sample was subjected to a ramping profile from 40-90% relative humidity (RH) at 10% increments, maintaining the sample at each step until a stable weight had been achieved (98% step completion, minimum step length 30 minutes, maximum step length 60 minutes) at 25° C. After completion of the sorption cycle, the sample was dried using the same procedure to 0% RH, and finally taken back to the starting point of 40% RH. Two cycles were performed. The weight change during the sorption/desorption cycles were plotted, allowing for the hygroscopic nature of the sample to be determined.

The test system of data set [4] is poly (ADP-ribose) polymerase (“PARP”) proteins. The note with it: selective for PARP-1 and PARP-2; Thorsell et al.; cited from earlier work.
The test system of data set [5] is BRCA1- and BRCA2-deficient cell lines. Conditions: in vitro; cited from earlier work.
Data set [6] relates to human cancers with deficiencies in BRCA1 and BRCA2 or with homologous recombination deficiency (HRD). The note with it: mutated or wild-type BRCA1/2; cited from earlier work.
Setting [7] is: pH 1 buffer (50 mM), shaken at 37° C. for 24 hours in total, average of triplicate.
Where [8] appears, read: water, shaken at 37° C. for 24 hours in total, average of triplicate.

On to `NC(=O)c1cccc2cn(-c3ccc([C@@H]4CCCNC4)cc3)nc12` [Amorphous Form, 2-{4-[(3S)-piperidin-3-yl]phenyl}-2H-indazole-7-carboxamide], for which, in data set [1] (listed as amorphous samples), the “Solid form after filtration (XRPD)” value was “a new crystalline form was obtained (Form V)”. In addition, in data set [2] (2-propanol, heated to about 50° C.), the “Dissolution in 2-propanol” value is on record as “partially soluble”. Moreover, the Dissolution in ethanol entry in data set [2] (ethanol, with heating to about 40° C.) is listed as “Complete dissolution”. Also, the Solubility in the data set “physchem” (setting [7]) was 11800 µg/mL (≈ 36.8 mM); in the data set “physchem” (water, Solubility in water, summary statement, conditions not stated), around 1000 µg/mL (≈ 3.12 mM); in “physchem” (setting [8]), 800 µg/mL (≈ 2.5 mM). The solubility at 24 h came to 13400 µg/mL (≈ 41.8 mM) in the data set “physchem” (pH 4.5 sodium acetate/acetic acid buffer, pH 4.5, aqueous buffer, pH 4.5 buffer (50 mM), shaken at 37° C. for 24 hours in total, average of triplicate) and 600 µg/mL (≈ 1.87 mM) in “physchem” (pH 6.8 KH2PO4/NaOH buffer, pH 6.8, aqueous buffer, pH 6.8 buffer (50 mM), shaken at 37° C. for 24 hours in total, average of triplicate).

Take `NC(=O)c1cccc2cn(-c3ccc([C@@H]4CCCNC4)cc3)nc12` [Crystalline Form I, 2-{4-[(3S)-piperidin-3-yl]phenyl}-2H-indazole-7-carboxamide]: the “Solid form after filtration (XRPD)” value in data set [1] (listed as crystalline samples) was “unchanged”. Also, the Hygroscopicity result is reported as “non-hygroscopic” in data set [3] (listed as Niraparib freebase Form I) and “non-hydroscopic” in data set [3] (listed as niraparib freebase Form I). In data set [3] (up to 90% RH, 25° C.), the GVS mass increase entry was “about 0.7%”. Moreover, the Solubility in the data set “physchem” (setting [7]) was 30900 µg/mL (≈ 96.4 mM); in “physchem” (pH 4.5 buffer (50 mM), shaken at 37° C. for 24 hours in total, average of triplicate), 11800 µg/mL (≈ 36.8 mM); in the data set “physchem” (pH 6.8 buffer (50 mM), shaken at 37° C. for 24 hours in total, average of triplicate), 700 µg/mL (≈ 2.18 mM); in “physchem” (setting [8]) it was below 100 µg/mL.

Turning to `NC(=O)c1cccc2cn(-c3ccc([C@@H]4CCCNC4)cc3)nc12` [Niraparib, 2-{4-[(3S)-piperidin-3-yl]phenyl}-2H-indazole-7-carboxamide], in data set [4], the PARP inhibition result was “potent inhibitor”. Further, the Inhibition of proliferation result in data set [5] is on record as “inhibits the proliferation”. Moreover, the Tumor growth result in data set [6] is listed as “decreases tumor growth”.

(Values after patent US20210347758A1 (Tesaro, Inc., priority 2018, published 2021).)
